# Where a name gives a salt, the structure may show the parent alone.
# How the values were obtained:
# [1] = test system: K562 tumor cells; assay: KOR assay, optical density versus time of cell cultures (FIG. 13); format: cell-based
# Description: Referring again to FIG. 6, and in the preferred embodiment depicted therein, a 96 well microtiter dish 310 is preferably used, and a light source 312 shines light through the samples disposed in such dish. The light source preferably provides light with a wavelength of from 200 about 800 nanometers. In one embodiment, the wavelength provided by the light source is from about 300 to about 700 nanometers. In yet another embodiment, the wavelength provided by the light source is from about 340 to about 660 nanometers.
# Referring again to FIG. 6, and in the preferred embodiment depicted therein, the transmittance values measured by sensor 314 may be converted into optical density values in accordance with the formula: Dw=-log10Tw, wherein Tw is the measured transmittance of the sample measured at the specified wavelength (w) of the light used, and Dw is the optical density of the sample at the specified wavelength of the light used.
# Thus, applicant's process allows one to measure the true optical density of a sample rather than mere absorbance. Once such optical density has been measured, one can then plot optical density versus time (as illustrated in the Figures of U.S. Pat. No. 6,258,553) and obtain a true rather than a distorted indication of cell apoptosis. […]
# [2] = test system: epithelial carcinoma cells; assay: exposure of cells to radiolabeled lineage specific hormones (FIG. 19); format: cell-based
# Description: FIG. 19 is a representation of the results of exposing cells to various lineage specific hormones. […] Reference may be had to U.S. Pat. No. 6,565,827 (radioimmunotherapy of lymphoma using anti-CD20 antibodies), U.S. Pat. No. 6,287,537 (radioimmunotherapy of lymphoma using anti-CD20 antibodies), U.S. Pat. No. 6,015,542 (radioimmunotherapy of lymphoma using anti-CD20 antibodies), and U.S. Pat. No. 5,843,398 (radioimmunotherapy of lymphoma using anti-CD 20 antibodies). The entire disclosure of these United States patents are hereby incorporated by reference into this specification. […] In another embodiment (see graph 1300) epithelial cells, 1310, and ovarian cancer cells, 1320, are exposed to radiolabeled estrogen. Over 90 percent of the ovarian cancer cells are killed upon exposure to the radiolabeled estrogen but less than 30 percent of the epithelial carcinoma cells are killed upon exposure.
compound,measurement,setting,value
Cc1ccc(NC(=O)c2ccc(CN3CCN(C)CC3)cc2)cc1Nc1nccc(-c2cccnc2)n1 [imatinib mesylate],slope of optical density versus time relative to control slope,[1]; K562 tumor cells derived from a patient with chronic myelogenous leukemia,dose-dependent decrease in slope
same,apoptosis peak in the KOR assay,[1]; optical density versus time,do not produce
"radiolabeled epithelial growth factor: radiolabeled ligand used to kill cells that possess receptors for the particular ligand (NSDSECPLSHDGYCLHDGVCMYIEALDKYACNCVVGYIGERCQYRDLKWWELR; Epidermal growth factor radiolabel; UniProt P01133 971-1023, looked up)",epithelial carcinoma cells killed upon exposure,[2],more than 50%

# From patent US20080008999A1, “Process for detecting the existence of mesenchymal chrondrosarcoma” (priority 2004, published 2008)
